Results: patent publication US11122997B2, “Modulating the aryl hydrocarbon receptor system to treat major depressive disorder” (Mayo Foundation for Medical Education and Research, priority 2015, dated 2021)

Columns and labels:
[1] = other NMDA receptor antagonists; cited from earlier work
[2] = cited from earlier work
U251 glioma cells = assay: Ketamine treatment of U251 glioma cell culture, mRNA (RT-qPCR) and protein (Western blot) levels; assay type: cell-based, human; conditions: U251 glia
Experimental: (§1) Lysates obtained from cells subjected to knockdown or overexpression were used to isolate total RNA (Zymo Research). The purity of the extracted RNA samples was assessed using a Nanodrop instrument (Thermo Scientific). All samples had acceptable A260/A280 ratios. AHR, ARNT, AHRR, IDO1, and TDO2 mRNAs levels were quantified by reverse transcription quantitative PCR (RT-qPCR) using a one step RNA-to-Ct™ kit (Life Technologies). The kit contains reagents for converting RNA to cDNA, followed by primer-specific amplification of the desired mRNA (in this case, AHR, ARNT, AHRR, IDO1, and TDO2). GAPDH was used as a reference gene. The quantification of these mRNAs was carried out by employing the ΔΔCt method as described elsewhere (Ingle et al., Cancer Discovery 3(7):812-825, 2013).
(§2) Cell lysates obtained after transfections and from LCLs were subjected to Western immunoblotting to detect levels of AHR, AHRR, ARNT, TDO2, and IDO1 proteins. Briefly, equal amounts of protein (as determined by the BCA protein assay) were loaded onto premade Criterion gels (Bio-Rad) and run for 1 hour at 180V. Proteins from the gels were electrophoretically transferred onto PVDF membranes and blocked at room temperature for 1 hour with 5% non-fat milk dissolved in TBST. The membranes were incubated with primary antibodies (anti-AHR from GeneTex, Inc. (Irvine, Calif.); anti-ARNT and anti AHRR from Sigma (St. Louis, Mo.); TDO2 from OriGene Technologies, Inc.; and IDO1) dissolved in 5% non-fat milk containing TBST at 4° C. overnight with gentle rocking. Following incubation, the membranes were vigorously washed with TB ST several times and then incubated with appropriate secondary antibodies, dissolved in 5% non-fat milk containing TBST at room temperature for 1 hour. Several TBST washes were carried out before ECL reagents were applied to the membranes and radiographic images were captured on X-ray films (GE). B-actin protein also was detected and served as a loading control. Quantification of Western immunoblots was carried out using NIH Image-J (Abramoff et al., Biophotonics Intl 11(7):36-42, 2004), and plotted in GraphPad-Prism software.

glioblastoma cells = assay: Secreted kynurenine in conditioned media of glioblastoma cells (HPLC); conditions: ketamine vs vehicle (FIG. 10)
iPSC-derived neurons = assay: Ketamine treatment of iPSC-derived neuron culture, mRNA and protein levels; assay type: cell-based, human
Experimental: Human induced pluripotent stem cells (iPSCs) were purchased from Axol, UK and were differentiated as per the company's protocol. The cells were differentiated for 30 days before being used for lentivirus-mediated knockdown experiments.
as §1, §2

[3] = ketamine vs vehicle (FIGS. 8A, 8B)

Row | SMILES | ketamine-like antidepressant effects [1] | effect on mood ([2]; severely depressed patients) | duration of effects ([2]; single infusion) | protein level of IDOL (U251 glioma cells; ketamine for 24 hours vs vehicle (FIG. 9A)) | mRNA level of AHRR (U251 glioma cells; [3]) | mRNA level of IDOL (U251 glioma cells; [3]) | mRNA level of TDO2 (U251 glioma cells; [3]) | secreted KYN in cell culture conditioned media (glioblastoma cells) | mRNA level of AHRR (iPSC-derived neurons; ketamine vs vehicle (FIG. 8C)) | mRNA level of IDOL (iPSC-derived neurons; ketamine vs vehicle (FIG. 8C)) | mRNA level of TDO2 (iPSC-derived neurons; ketamine vs vehicle (FIG. 8C)) | protein level of AHRR (iPSC-derived neurons; ketamine vs vehicle (FIG. 9B)) | protein level of IDOL (iPSC-derived neurons; ketamine vs vehicle (FIG. 9B)) | protein level of TDO2 (iPSC-derived neurons; ketamine vs vehicle (FIG. 9B))
1 | C[C@]12N[C@H](Cc3ccccc31)c1ccccc12 [MK801] | fail to demonstrate ketamine-like antidepressant effects |  |  |  |  |  |  |  |  |  |  |  |  | 
2 | CC12CC3CC(C)(C1)CC(N)(C3)C2 [memantine] | fail to demonstrate ketamine-like antidepressant effects |  |  |  |  |  |  |  |  |  |  |  |  | 
3 | CNC1(c2ccccc2Cl)CCCCC1=O (stereo not drawn) [Ketamine] |  | rapid improvement in mood | last for weeks | decreased levels | Decreased levels | decreased levels | decreased levels | decreased levels | Decreased levels | decreased levels | decreased levels | Decreased levels | decreased levels | decreased levels
